Target: Human V1b receptor (Homo sapiens (Human), UniProt P47901)
Test: Binding Test for V1b Receptor ([3H]AVP, crude membrane preparation of 293FT cells)
Settings: inhibition of [3H]AVP binding (0.4 to 1 nmol/L), room temperature, 60 minutes
Experimental: Binding Test for V1b Receptor
Human V1b receptor was transiently expressed in 293FT cells (Invitrogen). The cells were collected and then homogenated in a 15 mmol/L tris-hydrochloric acid buffer (pH 7.4 and containing 2 mmol/L magnesium chloride, 0.3 mmol/L ethylenediaminetetracetic acid, and 1 mmol/L glycol ether diaminetetraacetic acid). The resulting homogenate was centrifuged at 50,000×g at 4° C. for 20 minutes. The precipitate was resuspended in a 75 mmol/L tris-hydrochloric acid buffer (pH 7.4 and containing 12.5 mmol/L magnesium chloride, 0.3 mmol/L ethylenediaminetetracetic acid, 1 mmol/L glycol ether diaminetetraacetic acid, and 250 mmol/L sucrose) to give a crude membrane preparation, which was stored at −80° C. until the binding test was initiated. In the binding test, the crude membrane preparation was diluted with a 50 mmol/L tris-hydrochloric acid buffer (pH 7.4 and containing 10 mmol/L magnesium chloride and 0.1% bovine serum albumin) and mixed with each test compound and [^3H]AVP (final concentration: 0.4 to 1 nmol/L), followed by incubation at room temperature for 60 minutes. The test compound was serially diluted with DMSO so that it would have final concentrations of 0.01 nmol/L to 1 μmol/L at the time of mixing. After the incubation, the mixture was suction filtered through a GF/C filter that was preliminarily impregnated with 0.3% polyethyleneimine. The GF/C filter was dried and after adding a scintillator, the residual radioactivity on the filter was measured using TopCount (PerkinElmer Inc.). The radioactivity in the presence of unlabeled AVP at […] was defined as 0%, and the radioactivity in the absence of unlabeled AVP was defined as 100%. A dose-response curve was plotted from radio activities in the presence of a test compound at various concentrations, and the 50% inhibitory concentration (IC50 value) of the test compound was calculated.

Human V1b receptor, sequence (P47901 whole entry): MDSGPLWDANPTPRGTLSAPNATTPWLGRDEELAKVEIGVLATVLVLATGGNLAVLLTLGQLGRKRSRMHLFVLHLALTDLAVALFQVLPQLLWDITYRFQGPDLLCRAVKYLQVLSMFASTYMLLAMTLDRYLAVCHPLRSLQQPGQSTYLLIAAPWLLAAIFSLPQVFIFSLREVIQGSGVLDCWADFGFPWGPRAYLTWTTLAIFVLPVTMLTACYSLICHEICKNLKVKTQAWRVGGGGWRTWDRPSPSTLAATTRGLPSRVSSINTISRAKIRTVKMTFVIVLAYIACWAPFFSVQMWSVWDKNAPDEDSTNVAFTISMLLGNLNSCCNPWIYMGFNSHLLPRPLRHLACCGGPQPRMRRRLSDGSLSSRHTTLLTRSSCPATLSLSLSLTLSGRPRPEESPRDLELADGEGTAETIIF

**Q.** With `COc1cccc(-c2nc(-c3ccc(CCN4CCSCC4)cc3)nn2CC(=O)NC(C)C)c1` [Example B-28, 2-[5-(3-methoxyphenyl)-3-{4-[2-(thiomorpholin-4-yl)ethyl]phenyl}-1H-1,2,4-triazol-1-yl]-N-(propan-2-yl)acetamide] as the compound, how does the IC50 read?
**A.** < 10 nM

**Q.** For `CC(C)NC(=O)Cn1cc(-c2ccc(CCN3C4CCC3COC4)cn2)nc1-c1cccc(Cl)c1` [Example A-27, 2-[2-(3-chlorophenyl)-4-{5-[2-(3-oxa-8-azabicyclo[3.2.1]oct-8-yl)ethyl]pyridin-2-yl}-1H-imidazol-1-yl]-N-(propan-2-yl)acetamide], which IC50 is on record?
**A.** 3.6 nM

**Q.** Which IC50 does the source give for `CC(C)(C)NC(=O)Cc1nn(-c2ccc(CCN3C4CCC3COC4)cn2)c(=O)n1-c1cccc(Cl)c1` [Example D-16, N-tert-butyl-2-[4-(3-chlorophenyl)-1-{5-[2-(3-oxa-8-azabicyclo[3.2.1]oct-8-yl)ethyl]pyridin-2-yl}-5-oxo-4,5-dihydro-1H-1,2,4-triazol-3-yl]acetamide] here?
**A.** 10 to 100 nM

**Q.** How did the IC50 turn out when `COc1cc(-n2nc(CC(=O)NC(C)C)n(-c3cccc(Cl)c3)c2=O)ccc1CCN1C2CCC1COC2` [Example D-23, 2-[4-(3-chlorophenyl)-1-{3-methoxy-4-[2-(3-oxa-8-azabicyclo[3.2.1]oct-8-yl)ethyl]phenyl}-5-oxo-4,5-dihydro-1H-1,2,4-triazol-3-yl]-N-(propan-2-yl)acetamide] was run?
**A.** 3.3 nM

**Q.** For `COc1cccc(-c2nc(-c3ccc(CCN4C5CCC4COC5)cn3)nn2CC(=O)NC(C)C)c1` [Example B-05, 2-[5-(3-methoxyphenyl)-3-{5-[2-(3-oxa-8-azabicyclo[3.2.1]oct-8-yl)ethyl]pyridin-2-yl}-1H-1,2,4-triazol-1-yl]-N-(propan-2-yl)acetamide], which IC50 is on record?
**A.** 11 nM

**Q.** `CCN(CCOC)CCc1ccc(-c2cn(CC(=O)NC(C)C)c(-c3ccc(F)c(OC)c3)n2)cc1` [Example A-32, 2-[4-(4-{2-[ethyl(2-methoxyethyl)amino]ethyl}phenyl)-2-(4-fluoro-3-methoxyphenyl)-1H-imidazol-1-yl]-N-(propan-2-yl)acetamide] was tested. Which IC50 did it give?
**A.** 100 to 1000 nM

**Q.** `CC(C)NC(=O)Cc1nn(-c2ccc(CCN3CCCC3)cc2)c(=O)n1-c1cccc(Cl)c1` [Example D-45, 2-[4-(3-chlorophenyl)-5-oxo-1-{4-[2-(pyrrolidin-1-yl)ethyl]phenyl}-4,5-dihydro-1H-1,2,4-triazol-3-yl]-N-(propan-2-yl)acetamide] was tested. Which IC50 did it give?
**A.** 10 to 100 nM

**Q.** Which IC50 does the source give for `COc1cc(-c2nc(-c3ccc(CCN4CCCC4)cc3)cn2CC(=O)NC(C)C)ccc1F` [Example A-11, 2-[2-(4-fluoro-3-methoxyphenyl)-4-{4-[2-(pyrrolidin-1-yl)ethyl]phenyl}-1H-imidazol-1-yl]-N-(propan-2-yl)acetamide] here?
**A.** 10 nM

**Q.** With `COc1cccc(-c2nc(-c3ccc(CCN4CCC(NC(C)=O)CC4)cc3)nn2CC(=O)NC(C)C)c1` [Example B-35, 2-[3-(4-{2-[4-(acetylamino)piperidin-1-yl]ethyl}phenyl)-5-(3-methoxyphenyl)-1H-1,2,4-triazol-1-yl]-N-(propan-2-yl)acetamide] as the compound, how does the IC50 read?
**A.** 100 to 1000 nM

**Q.** Which IC50 does the source give for `CC(C)NC(=O)Cn1cc(C(=O)N2CCC(CCN3CCOCC3)C2)nc1-c1cccc(Cl)c1` (stereo not drawn) [Example A-49, 2-[2-(3-chlorophenyl)-4-({3-[2-(morpholin-4-yl)ethyl]pyrrolidin-1-yl}carbonyl)-1H-imidazol-1-yl]-N-(propan-2-yl)acetamide] here?
**A.** 100 to 1000 nM

**Q.** `CC(C)(C)NC(=O)Cc1nn(-c2ccc(CCN3C4CCC3COC4)cn2)c(=O)n1-c1ccc(F)c(Cl)c1` [Example D-33, N-tert-butyl-2-[4-(3-chloro-4-fluorophenyl)-1-{5-[2-(3-oxa-8-azabicyclo[3.2.1]oct-8-yl)ethyl]pyridin-2-yl}-5-oxo-4,5-dihydro-1H-1,2,4-triazol-3-yl]acetamide] was tested. Which IC50 did it give?
**A.** 9.1 nM

**Q.** `COc1cccc(-c2nc(-c3ccc(CCN4CCN(C)CC4)cc3)nn2CC(=O)NC(C)C)c1` [Example B-32, 2-[5-(3-methoxyphenyl)-3-{4-[2-(4-methylpiperazin-1-yl)ethyl]phenyl}-1H-1,2,4-triazol-1-yl]-N-(propan-2-yl)acetamide] was tested. Which IC50 did it give?
**A.** 100 to 1000 nM

**Q.** For `COC1CCCN(CCc2ccc(-n3nc(CC(=O)NC(C)C)n(-c4cccc(Cl)c4)c3=O)cc2)C1` [Example D-50, 2-[4-(3-chlorophenyl)-1-{4-[2-(3-methoxypiperidin-1-yl)ethyl]phenyl}-5-oxo-4,5-dihydro-1H-1,2,4-triazol-3-yl]-N-(propan-2-yl)acetamide], which IC50 is on record?
**A.** 100 to 1000 nM

**Q.** For `COc1cc(-c2nc(-c3ccc(CCN4C(C)COCC4C)cc3)cn2CC(=O)NC(C)C)ccc1F` (stereo not drawn) [Example A-25, 2-[4-{4-[2-(3,5-dimethylmorpholin-4-yl)ethyl]phenyl}-2-(4-fluoro-3-methoxyphenyl)-1H-imidazol-1-yl]-N-(propan-2-yl)acetamide], which IC50 is on record?
**A.** 14 nM

**Q.** For `CC(C)NC(=O)Cn1cc(-c2ccc(CCN3CCC(O)CC3)cc2)nc1-c1cccc(Cl)c1` [Example A-04, 2-[2-(3-chlorophenyl)-4-{4-[2-(4-hydroxypiperidin-1-yl)ethyl]phenyl}-1H-imidazol-1-yl]-N-(propan-2-yl)acetamide], which IC50 is on record?
**A.** 10 to 100 nM

**Q.** For `COc1cccc(-c2nc(-c3ccc(CCN4CCC(C#N)CC4)cc3)nn2CC(=O)NC(C)C)c1` [Example B-24, 2-[3-{4-[2-(4-cyanopiperidin-1-yl)ethyl]phenyl}-5-(3-methoxyphenyl)-1H-1,2,4-triazol-1-yl]-N-(propan-2-yl)acetamide], which IC50 is on record?
**A.** 100 to 1000 nM

**Q.** For `CC(C)NC(=O)Cn1cc(-c2ccc(CCN3CCOCC3)cc2)nc1-c1ccc(F)c(Cl)c1` [Example A-39, 2-[2-(3-chloro-4-fluorophenyl)-4-{4-[2-(morpholin-4-yl)ethyl]phenyl}-1H-imidazol-1-yl]-N-(propan-2-yl)acetamide], which IC50 is on record?
**A.** 1 nM

**Q.** For `CC(C)NC(=O)Cc1nc(-c2ccc(CCN3CCCCC3)cc2)sc1-c1cccc(Cl)c1` [Example C-13, 2-[5-(3-chlorophenyl)-2-{4-[2-(piperidin-1-yl)ethyl]phenyl}-1,3-thiazol-4-yl]-N-(propan-2-yl)acetamide], which IC50 is on record?
**A.** 16 nM

**Q.** How did the IC50 turn out when `COc1cccc(-c2nc(-c3ccc(CCN4CCC(F)(F)CC4)cc3)nn2CC(=O)NC(C)C)c1` [Example B-40, 2-[3-{4-[2-(4,4-difluoropiperidin-1-yl)ethyl]phenyl}-5-(3-methoxyphenyl)-1H-1,2,4-triazol-1-yl]-N-(propan-2-yl)acetamide] was run?
**A.** 10 to 100 nM

**Q.** Which IC50 does the source give for `CC(C)NC(=O)Cc1nc(-c2ccc(CCN3CC4(COC4)C3)cc2)sc1-c1cccc(Cl)c1` [Example C-15, 2-[5-(3-chlorophenyl)-2-{4-[2-(2-oxa-6-azaspiro[3.3]hept-6-yl)ethyl]phenyl}-1,3-thiazol-4-yl]-N-(propan-2-yl)acetamide] here?
**A.** 22 nM

**Q.** Which IC50 does the source give for `COc1cc(-c2nc(-c3ccc(CCN4CCCOCC4)cc3)cn2CC(=O)NC(C)C)ccc1F` [Example A-23, 2-[2-(4-fluoro-3-methoxyphenyl)-4-{4-[2-(1,4-oxazepan-4-yl)ethyl]phenyl}-1H-imidazol-1-yl]-N-(propan-2-yl)acetamide] here?
**A.** 11 nM

**Q.** Which IC50 does the source give for `COc1cc(-n2c(CC(=O)NC(C)(C)C)nn(-c3ccc(CCN4CCOCC4)cn3)c2=O)ccc1F` [Example D-11, N-tert-butyl-2-[4-(4-fluoro-3-methoxyphenyl)-1-{5-[2-(morpholin-4-yl)ethyl]pyridin-2-yl}-5-oxo-4,5-dihydro-1H-1,2,4-triazol-3-yl]acetamide] here?
**A.** 10 to 100 nM

**Q.** Which IC50 does the source give for `CC(C)NC(=O)Cc1nn(-c2ccc(CCN3CCOCC3C)cc2)c(=O)n1-c1cccc(Cl)c1` [Example D-53, 2-[4-(3-chlorophenyl)-1-{4-[2-(3-methylmorpholin-4-yl)ethyl]phenyl}-5-oxo-4,5-dihydro-1H-1,2,4-triazol-3-yl]-N-(propan-2-yl)acetamide] here?
**A.** 10 to 100 nM

**Q.** With `CC(C)NC(=O)Cn1cc(-c2ccc(CCN3C4CCC3COC4)cc2)nc1-c1cccc(Cl)c1` [Example A-08, 2-[2-(3-chlorophenyl)-4-{4-[2-(3-oxa-8-azabicyclo[3.2.1]oct-8-yl)ethyl]phenyl}-1H-imidazol-1-yl]-N-(propan-2-yl)acetamide] as the compound, how does the IC50 read?
**A.** 0.82 nM

**Q.** `COc1cccc(-c2nc(-c3ccc(CCN4CCCCC4)cc3)cn2CC(=O)NC(C)C)c1` [Example A-37, 2-[2-(3-methoxyphenyl)-4-{4-[2-(piperidin-1-yl)ethyl]phenyl}-1H-imidazol-1-yl]-N-(propan-2-yl)acetamide] was tested. Which IC50 did it give?
**A.** 10 to 100 nM

**Q.** How did the IC50 turn out when `COc1cc(CCN2C3CCC2COC3)ccc1-n1nc(CC(=O)NC(C)C)n(-c2cccc(Cl)c2)c1=O` [Example D-25, 2-[4-(3-chlorophenyl)-1-{2-methoxy-4-[2-(3-oxa-8-azabicyclo[3.2.1]oct-8-yl)ethyl]phenyl}-5-oxo-4,5-dihydro-1H-1,2,4-triazol-3-yl]-N-(propan-2-yl)acetamide] was run?
**A.** 100 to 1000 nM

**Q.** For `CC(C)NC(=O)Cn1cc(-c2ccc(CCN3CCOCC3)cn2)nc1-c1cccc(Cl)c1` [Example A-26, 2-[2-(3-chlorophenyl)-4-{5-[2-(morpholin-4-yl)ethyl]pyridin-2-yl}-1H-imidazol-1-yl]-N-(propan-2-yl)acetamide], which IC50 is on record?
**A.** 3.4 nM

Source: patent publication US9522914B2, “Azole derivative” (TAISHO PHARMACEUTICAL CO., LTD, priority 2011, dated 2016)
